PubChem BioAssay AID256 (DTP/NCI, 2004)
Values joined by “and” are separate entries in the source; they are usually repeats but may differ in a detail not shown here. Equal entries are not always repeated. Toxic doses and inconclusive results are not listed.

System: CD2F1 mice, L1210 leukemia ip, survival T/C
Experiment: NCI In Vivo Anticancer Drug Screen. Data for tumor model L1210 Leukemia (intraperitoneal) in CD2F1 (CDF1) mice
Conditions: higher = longer survival
Summary of the method: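 Mice carrying a transplanted tumor received test compound or vehicle alone. The value is the measurement in the treated group divided by that in the vehicle-treated control group.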

[1] = endpoint: mean survival time, dose: 100.0 mg/kg/injection, schedule: Q04DX003 (ip), vehicle: saline with Tween-80
[2] = endpoint: mean survival time, dose: 400.0 mg/kg/injection, schedule: Q04DX003 (ip), vehicle: saline with Tween-80
[3] = endpoint: mean survival time, dose: 50.0 mg/kg/injection, schedule: Q04DX002 (ip), vehicle: saline with Tween-80
[4] = endpoint: mean survival time, dose: 100.0 mg/kg/injection, schedule: Q04DX002 (ip), vehicle: saline with Tween-80
[5] = endpoint: mean survival time, dose: 200.0 mg/kg/injection, schedule: Q04DX002 (ip), vehicle: saline with Tween-80
[6] = endpoint: mean survival time, dose: 100.0 mg/kg/injection, schedule: Q01DX009 (ip), vehicle: saline with Tween-80
[7] = endpoint: mean survival time, dose: 200.0 mg/kg/injection, schedule: Q04DX003 (ip), vehicle: saline with Tween-80

In the case of `C/C(=N\N(C)C)C(C)(C)C`, the T/C (endpoint: mean survival time, dose: 75.0 mg/kg/injection, schedule: Q01DX001 (ip), vehicle: saline) is reported as 93 % of control, the T/C (endpoint: mean survival time, dose: 150.0 mg/kg/injection, schedule: Q01DX001 (ip), vehicle: saline) is reported as 100 % of control and the T/C (endpoint: mean survival time, dose: 300.0 mg/kg/injection, schedule: Q01DX001 (ip), vehicle: saline) is reported as 108 % of control.

For `Nc1cc(Cl)c(Cl)cc1S(=O)(=O)NO`, the T/C [1] was 95 % of control and the T/C [2] was 89 % of control.

With `Cc1cccc(N2CCN(CCO)CC2)c1` the T/C (endpoint: mean survival time, dose: 12.5 mg/kg/injection, schedule: Q01DX009 (ip), vehicle: saline) was 109 % of control, the T/C (endpoint: mean survival time, dose: 25.0 mg/kg/injection, schedule: Q01DX009 (ip), vehicle: saline) was 102 % of control and the T/C (endpoint: mean survival time, dose: 50.0 mg/kg/injection, schedule: Q01DX009 (ip), vehicle: saline) was 100 % of control.

`CC1(Br)CCOC1=O` (configuration not stated) was tested, and the T/C [3] was 98 % of control, the T/C [4] was 98 % of control and the T/C [5] was 111 % of control.

With `CCCSCC` the T/C (endpoint: mean survival time, dose: 25.0 mg/kg/injection, schedule: Q01DX009 (ip), vehicle: saline with Tween-80) was 98 % of control, the T/C (endpoint: mean survival time, dose: 50.0 mg/kg/injection, schedule: Q01DX009 (ip), vehicle: saline with Tween-80) was 106 % of control and the T/C [6] was 95 % of control and 96 % of control.

`COc1ccccc1N=Nc1c(O)n(-c2ccccc2Cl)c(=S)n(-c2ccccc2OC)c1=O` was tested, and the T/C (endpoint: mean survival time, dose: 25.0 mg/kg/injection, schedule: Q04DX002 (ip), vehicle: saline with Tween-80) was 105 % of control, the T/C [3] was 90 % of control and the T/C [4] was 94 % of control.

`CC1=C(/C=C/C(C)=C/C=C/C(C)=C/C(=O)O)C(C)(C)CCC1` was tested, and the T/C (endpoint: mean survival time, dose: 8.0 mg/kg/injection, schedule: Q01DX009 (ip), vehicle: saline with Tween-80) was 100 % of control, the T/C (endpoint: mean survival time, dose: 16.0 mg/kg/injection, schedule: Q01DX009 (ip), vehicle: saline with Tween-80) was 95 % of control and the T/C (endpoint: mean survival time, dose: 32.0 mg/kg/injection, schedule: Q01DX009 (ip), vehicle: saline with Tween-80) was 95 % of control. For the same compound, the T/C (endpoint: mean survival time, dose: 64.0 mg/kg/injection, schedule: Q01DX009 (ip), vehicle: saline with Tween-80) was 97 % of control, the T/C [1] was 105 % of control and the T/C (endpoint: mean survival time, dose: 128.0 mg/kg/injection, schedule: Q01DX009 (ip), vehicle: saline with Tween-80) was 87 % of control. For the same compound, the T/C [7] was 100 % of control and the T/C [2] was 97 % of control.

With `[Cl][Pt+2][Cl].[NH-]c1ccc(Cl)cc1[NH-]` the T/C (endpoint: mean survival time, dose: 2.5 mg/kg/injection, schedule: Q01DX009 (ip), vehicle: saline with Tween-80) was 113 % of control, the T/C (endpoint: mean survival time, dose: 5.0 mg/kg/injection, schedule: Q01DX009 (ip), vehicle: saline with Tween-80) was 118 % of control and the T/C (endpoint: mean survival time, dose: 40.0 mg/kg/injection, schedule: Q01DX009 (ip), vehicle: saline with Tween-80) was 179 % of control.

For `Nc1nc(N)c(N=Nc2ccc(S(=O)(=O)O)cc2)c(N)n1`, the T/C [6] was 94 % of control, the T/C (endpoint: mean survival time, dose: 200.0 mg/kg/injection, schedule: Q01DX009 (ip), vehicle: saline with Tween-80) was 94 % of control and the T/C (endpoint: mean survival time, dose: 400.0 mg/kg/injection, schedule: Q01DX009 (ip), vehicle: saline with Tween-80) was 98 % of control.

In the case of `COC1=CCC2=C(C1)C1(C)CCCC(C)(CO)C1CC2` (configuration not stated), the T/C [1] is reported as 94 % of control, the T/C [7] is reported as 92 % of control and the T/C [2] is reported as 97 % of control.

With `O=c1[nH]n(Cc2ccccc2)c2ccccc12` the T/C (endpoint: mean survival time, dose: 25.0 mg/kg/injection, schedule: Q04DX003 (ip), vehicle: Klucel (hydroxypropylcellulose) (HPC)) was 101 % of control, the T/C (endpoint: mean survival time, dose: 50.0 mg/kg/injection, schedule: Q04DX003 (ip), vehicle: Klucel (hydroxypropylcellulose) (HPC)) was 106 % of control and the T/C (endpoint: mean survival time, dose: 100.0 mg/kg/injection, schedule: Q04DX003 (ip), vehicle: Klucel (hydroxypropylcellulose) (HPC)) was 106 % of control.

In the case of `CC(=O)Nc1nn(C)c(C#N)c1C#N`, the T/C (endpoint: mean survival time, dose: 37.5 mg/kg/injection, schedule: Q04DX002 (ip), vehicle: saline with Tween-80) is reported as 106 % of control, the T/C (endpoint: mean survival time, dose: 75.0 mg/kg/injection, schedule: Q04DX002 (ip), vehicle: saline with Tween-80) is reported as 106 % of control and the T/C (endpoint: mean survival time, dose: 150.0 mg/kg/injection, schedule: Q04DX002 (ip), vehicle: saline with Tween-80) is reported as 102 % of control.

In the case of `CCCCCC(=O)N1CCOCC1`, the T/C (endpoint: mean survival time, dose: 25.0 mg/kg/injection, schedule: Q04DX003 (ip), vehicle: saline with Tween-80) is reported as 98 % of control, the T/C (endpoint: mean survival time, dose: 50.0 mg/kg/injection, schedule: Q04DX003 (ip), vehicle: saline with Tween-80) is reported as 98 % of control and the T/C [1] is reported as 104 % of control and 112 % of control. For the same compound, the T/C [7] was 102 % of control and the T/C [2] was 100 % of control.

For `O=C(OCC(OC(=O)c1ccccc1)C(OC(=O)c1ccccc1)C(O)C(O)CO)c1ccccc1` (configuration not stated) (tested in a mixture with another compound), the T/C [4] was 114 % of control and the T/C [5] was 100 % of control.

`COc1ccc2oc(-c3ccc(Cl)cc3)c(N3CCN(C)CC3)c2c1` was tested, and the T/C (endpoint: median survival time, dose: 15.0 mg/kg/injection, schedule: Q01DX005 (ip), vehicle: saline) was 104 % of control, the T/C (endpoint: median survival time, dose: 30.0 mg/kg/injection, schedule: Q01DX005 (ip), vehicle: saline) was 103 % of control and the T/C (endpoint: median survival time, dose: 60.0 mg/kg/injection, schedule: Q01DX005 (ip), vehicle: saline) was 100 % of control. The T/C (endpoint: median survival time, dose: 120.0 mg/kg/injection, schedule: Q01DX005 (ip), vehicle: saline) was 107 % of control and the T/C (endpoint: median survival time, dose: 240.0 mg/kg/injection, schedule: Q01DX005 (ip), vehicle: saline) was 119 % of control.
